Patent US10100010B1, “4-methoxy pyrrole derivatives or salts thereof and pharmaceutical composition comprising the same” (Daewoong Pharmaceutical Co., Ltd., priority 2015, dated 2018)
Structures can show the parent of a compound that is named as a salt. Where two headings read alike, the source gives them in different places.

Key:
[1] = target: T1, proton pump (H+/K+-ATPase) (Sus scrofa, UniProt P19156); experiment: Inhibitory effects on proton pump (H+/K+-ATPase) activity, gastric vesicles, malachite green Pi detection; assay type: biochemical; conditions: hog gastric vesicles, 37° C. 40 minutes, pH 7.4
T1 construct: Gastric vesicles were prepared from a hog stomach; from tissue; host or cells: hog stomach (gastric vesicles, method of Rabon et al. 1988)
T1 sequence (P19156 2-1034 limits assumed): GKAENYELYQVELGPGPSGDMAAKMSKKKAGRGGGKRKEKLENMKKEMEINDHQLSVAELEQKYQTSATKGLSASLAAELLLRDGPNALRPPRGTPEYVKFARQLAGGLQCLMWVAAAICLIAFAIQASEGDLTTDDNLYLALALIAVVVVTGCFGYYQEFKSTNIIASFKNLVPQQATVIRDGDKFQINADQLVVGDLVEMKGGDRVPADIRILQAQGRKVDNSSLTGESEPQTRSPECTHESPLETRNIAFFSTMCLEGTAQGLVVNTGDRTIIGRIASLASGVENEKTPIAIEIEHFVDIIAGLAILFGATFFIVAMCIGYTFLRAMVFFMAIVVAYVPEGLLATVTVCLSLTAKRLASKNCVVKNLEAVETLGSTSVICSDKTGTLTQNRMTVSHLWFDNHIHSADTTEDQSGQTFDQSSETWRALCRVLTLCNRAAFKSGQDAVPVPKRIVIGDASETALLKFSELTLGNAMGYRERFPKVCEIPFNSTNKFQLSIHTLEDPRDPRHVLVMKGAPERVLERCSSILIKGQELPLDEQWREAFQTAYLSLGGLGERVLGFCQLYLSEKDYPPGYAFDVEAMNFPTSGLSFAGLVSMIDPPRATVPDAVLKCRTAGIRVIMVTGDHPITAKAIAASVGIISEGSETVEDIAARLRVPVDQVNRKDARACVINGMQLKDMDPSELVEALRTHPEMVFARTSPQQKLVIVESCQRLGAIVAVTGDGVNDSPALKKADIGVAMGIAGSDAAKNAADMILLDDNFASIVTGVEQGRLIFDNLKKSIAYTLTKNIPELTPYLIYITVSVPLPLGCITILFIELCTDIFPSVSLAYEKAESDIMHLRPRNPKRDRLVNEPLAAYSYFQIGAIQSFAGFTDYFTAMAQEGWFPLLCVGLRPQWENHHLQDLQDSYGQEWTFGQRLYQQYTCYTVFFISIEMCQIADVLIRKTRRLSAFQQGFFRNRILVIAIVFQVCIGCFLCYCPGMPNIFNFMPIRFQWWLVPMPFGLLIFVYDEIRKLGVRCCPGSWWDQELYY
T1 sequence (P18434 whole entry partner): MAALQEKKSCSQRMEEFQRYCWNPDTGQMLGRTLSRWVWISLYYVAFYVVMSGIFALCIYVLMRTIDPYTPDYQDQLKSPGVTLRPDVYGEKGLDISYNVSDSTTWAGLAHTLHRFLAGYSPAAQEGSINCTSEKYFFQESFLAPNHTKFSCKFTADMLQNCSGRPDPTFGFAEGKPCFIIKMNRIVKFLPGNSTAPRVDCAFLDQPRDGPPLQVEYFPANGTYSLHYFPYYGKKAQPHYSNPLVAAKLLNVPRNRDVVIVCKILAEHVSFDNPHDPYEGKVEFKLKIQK
Description: The inhibitory effects on proton pump (H^+/K^+-ATPase) activity of the compounds prepared in Examples 2, 8 and 22 were measured as follows.
Gastric vesicles were prepared from a hog stomach in accordance with the known method (Edd C. Rabon et al., Preparation of Gastric H^+, K^+-ATPase., Methods in enzymology, vol. 157 Academic Press Inc., (1988), pp. 649-654). The protein contents of gastric vesicles thus prepared were quantitatively measured with Bicinchoninic Acid (BCA) kit (Thermo Co.).
80 ul of (a predetermined concentration of a test compound, 0.5% DMSO, 2.5 mM MgCl2, 12.5 mM KCl, 1.25 mM EDTA, 60 mM Tris-HCl, pH7.4) was added to each well of 96-well plate. 10 ul of the reaction solution containing gastric vesicles (60 mmol/l, Tris-HCl buffer solution, pH 7.4), and 10 ul of Tris buffer solution containing adenosine triphosphate (10 mM ATP, Tris-HCl buffer solution, pH 7.4) were added to each well and subjected to enzymatic reaction at 37° C. for 40 minutes. […] The amount of monophosphate (Pi) in the reaction solution was measured at 570 nm by using a microplate reader (FLUOstar Omega, BMG Co.). The inhibition rate (%) was measured from the activity value of the control group and the activity value of the test compound at various concentrations, and the concentration (IC50) that inhibits H^+/K^+-ATPase activity by 50% was calculated from each % inhibition value of the compounds using Logistic 4-parameter function of Sigmaplot8.0 program.

5-HT2A = 5-HT2A (Homo sapiens, UniProt P28223); experiment: GPCR Calcium Flux assay (FLIPR tetra, Eurofins), 5-HT2A; assay type: cell-based; conditions: for IC50: 8 concentrations 10 to 0.0006 uM, read-out: 50% inhibitory concentration (IC50) 5-HT2A; for inhibition at 10 µM: read-out: inhibition rate (%) 5-HT2A
Chain of 5-HT2A (P28223 whole entry): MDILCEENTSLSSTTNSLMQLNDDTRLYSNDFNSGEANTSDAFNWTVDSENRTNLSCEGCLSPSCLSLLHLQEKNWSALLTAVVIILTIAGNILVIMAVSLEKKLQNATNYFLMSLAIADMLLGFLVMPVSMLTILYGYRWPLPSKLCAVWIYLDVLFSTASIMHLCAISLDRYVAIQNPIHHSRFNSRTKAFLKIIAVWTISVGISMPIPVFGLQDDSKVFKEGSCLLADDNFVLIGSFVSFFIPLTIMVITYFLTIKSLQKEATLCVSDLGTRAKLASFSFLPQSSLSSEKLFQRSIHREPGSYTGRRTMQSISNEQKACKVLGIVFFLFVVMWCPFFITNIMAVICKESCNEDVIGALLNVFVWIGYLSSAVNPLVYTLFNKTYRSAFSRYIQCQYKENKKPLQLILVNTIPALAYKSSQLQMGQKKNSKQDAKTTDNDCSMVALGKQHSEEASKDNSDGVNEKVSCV
Description: (§1) In order to confirm whether the compounds prepared in the above Examples act as an agonist or antagonist against GPCR Target, Calcium Flux assay was performed in an assay plate in which the compounds prepared in the Examples, vehicle controls, and reference compounds were added, using a Fluorometric imaging plate reader (FLIPR tetra) equipment.
(§2) Calcium Flux assay was evaluated by entrusting the GPCR profiler assay in Safety panel assays with Eurofins. By using the Fluo-8AM calcium dye, excitation was measured at a wavelength in the range of 470 to 495 nm and Emission was measured at a wavelength in the range of 515-575 nm. GPCR Assay Buffer for Calcium Flux assay was prepared by adding 20 mM of HEPES and 2.5 mM of Probenecid to Hanks Balanced Salt Solution (HBSS) to have pH 7.4. The Compounds of Examples for evaluation of the GPCR were diluted with DMSO at a concentration of 10 mM to make a stock and then prepared by diluting in the GPCR Assay Buffer at the concentration equivalent to three times the final concentration. First, for the evaluation of GPCRs, the inhibitory activity of the compounds of the Examples was evaluated at a single concentration of 10 uM, and then the respective selected targets were four fold-diluted from 10 uM to the low side to calculate 50% inhibitory concentration (IC50), prepared at the total 8 concentrations of 10, 2.5, 0.62, 0.15, 0.04, 0.01, 0.0024, 0.0006 uM, and Calcium Flux assay for GPCR was conducted. In order to evaluate the agonist and antagonist, % inhibition rate against GPCR activity before and after treatment of the compounds and the inhibitory activity of the compounds of the Examples were determined.
(§3) As a result, when the efficacy of […] and acetylcholine of the compounds prepared in the Examples was 100%, the inhibition rate (%) at a single concentration of 10 uM was evaluated and shown in Table 8.

M1 = target: T2, M1 (Homo sapiens, UniProt P11229); experiment: GPCR Calcium Flux assay (FLIPR tetra, Eurofins), M1; assay type: cell-based; conditions: for IC50: 8 concentrations 10 to 0.0006 uM, read-out: 50% inhibitory concentration (IC50) M1; for inhibition at 10 µM: single concentration of 10 uM, read-out: inhibition rate (%) M1
T2 sequence (P11229 1-460): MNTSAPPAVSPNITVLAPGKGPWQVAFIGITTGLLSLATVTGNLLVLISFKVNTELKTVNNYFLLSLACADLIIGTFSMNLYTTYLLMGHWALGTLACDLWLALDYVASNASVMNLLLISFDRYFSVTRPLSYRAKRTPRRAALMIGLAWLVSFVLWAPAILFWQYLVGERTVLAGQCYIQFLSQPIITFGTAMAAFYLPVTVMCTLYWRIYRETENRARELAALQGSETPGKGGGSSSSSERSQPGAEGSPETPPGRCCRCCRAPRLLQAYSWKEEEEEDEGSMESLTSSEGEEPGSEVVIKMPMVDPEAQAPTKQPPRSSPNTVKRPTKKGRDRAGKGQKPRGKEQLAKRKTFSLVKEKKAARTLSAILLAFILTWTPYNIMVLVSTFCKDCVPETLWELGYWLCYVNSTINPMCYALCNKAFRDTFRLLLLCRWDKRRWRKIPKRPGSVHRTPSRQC
Description: as §1, §2, §3

M2 = target: T3, M2 (Homo sapiens, UniProt P08172); experiment: GPCR Calcium Flux assay (FLIPR tetra, Eurofins), M2; assay type: cell-based; conditions: for IC50: 8 concentrations 10 to 0.0006 uM, read-out: 50% inhibitory concentration (IC50) M2; for inhibition at 10 µM: single concentration of 10 uM, read-out: inhibition rate (%) M2
T3 sequence (P08172 1-466): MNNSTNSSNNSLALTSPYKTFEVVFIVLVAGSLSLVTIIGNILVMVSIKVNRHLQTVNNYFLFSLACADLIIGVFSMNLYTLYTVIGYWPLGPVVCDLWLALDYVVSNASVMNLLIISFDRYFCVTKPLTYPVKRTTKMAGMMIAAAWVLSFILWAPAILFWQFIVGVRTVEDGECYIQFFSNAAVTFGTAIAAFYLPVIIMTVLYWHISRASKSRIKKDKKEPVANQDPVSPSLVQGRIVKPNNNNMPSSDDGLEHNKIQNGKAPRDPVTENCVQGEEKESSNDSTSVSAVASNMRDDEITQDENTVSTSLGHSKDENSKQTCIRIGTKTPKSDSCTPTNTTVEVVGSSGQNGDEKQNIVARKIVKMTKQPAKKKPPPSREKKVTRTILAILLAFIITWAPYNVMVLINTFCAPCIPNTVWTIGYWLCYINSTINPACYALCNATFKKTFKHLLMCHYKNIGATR
Description: as §1, §2, §3

Row | SMILES | IC50 [1] [nM] | IC50 (5-HT2A) [nM] | inhibition at 10 µM (5-HT2A; single concentration of 10 uM) [%] | IC50 (M1) [nM] | inhibition at 10 µM (M1) [%] | IC50 (M2) [nM] | inhibition at 10 µM (M2) [%] | inhibition at 10 µM (5-HT2A) [%]
1 | CNCc1cn(S(=O)(=O)c2cccc(F)c2)c(-c2ccc(F)cc2F)c1OC.Cl [Example 8, 1-(5-(2,4-difluorophenyl)-1-((3-fluorophenyl)sulfonyl)-4-methoxy-1H-pyrrol-3-yl)-N-methylmethanamine hydrochloride] | 24 | 110 | 102 | 140 | 101 | 650 | 101 | –
2 | CNCc1cn(S(=O)(=O)c2cccc(C(F)(F)F)c2)c(-c2ccccc2F)c1OC [Example 2, hydrochloride] | 15 | – | – | – | 92.7 | – | -4.7 | 39.5
3 | CNCc1cn(S(=O)(=O)c2cccc(F)c2)c(-c2c(F)cc(F)cc2F)c1OC.Cl [Example 22, 1-(1-((3-fluorophenyl)sulfonyl)-4-methoxy-5-(2,4,6-trifluorophenyl)-1H-pyrrol-3-yl)-N-methylmethanamine hydrochloride] | 14 | 33 | 102 | 370 | 98 | 1000 | 100 | –
